Source: patent US20250043299A1, “POINT MUTATIONS THAT BOOST AROMATIC AMINO ACID PRODUCTION AND CO2 ASSIMILATION IN PLANTS” (Wisconsin Alumni Research Foundation, priority 2021, published 2025)
“Also recorded” adds a separate entry of the source.

Columns and labels:
DHS1^WT = biological target: T1, DHS1^WT (Arabidopsis thaliana, UniProt P29976); settings: AAAs, chorismate, caffeate: from Yokoyama et al., Plant Cell, 2021; cited from earlier work
T1 construct: without the predicted plastid transit peptide (amino acid residues; 49-525, 34-507, and 52-527, respectively); made in house; host or cells: E. coli Rosetta-2
T1 sequence (P29976 49-525): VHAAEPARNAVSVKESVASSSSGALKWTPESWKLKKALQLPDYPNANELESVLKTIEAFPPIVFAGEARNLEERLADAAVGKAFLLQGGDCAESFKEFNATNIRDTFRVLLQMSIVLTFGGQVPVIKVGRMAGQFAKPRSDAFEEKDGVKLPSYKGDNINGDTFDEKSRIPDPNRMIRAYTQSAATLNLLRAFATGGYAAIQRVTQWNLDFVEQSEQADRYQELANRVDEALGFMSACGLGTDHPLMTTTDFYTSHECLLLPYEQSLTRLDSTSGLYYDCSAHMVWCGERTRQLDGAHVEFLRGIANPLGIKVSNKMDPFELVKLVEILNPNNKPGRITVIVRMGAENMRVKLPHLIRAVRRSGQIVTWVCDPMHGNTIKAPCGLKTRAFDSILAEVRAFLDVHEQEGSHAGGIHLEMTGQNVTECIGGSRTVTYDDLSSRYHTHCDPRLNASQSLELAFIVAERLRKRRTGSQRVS

DHS2^A4 = biological target: T2, DHS2^A4 (Arabidopsis thaliana, UniProt Q00218, G222S); assay: Differential scanning fluorimetry (DSF) protein-ligand affinity analysis, DHS2^A4; type: binding; settings: ligand at 1 mM
T2 construct: without the predicted plastid transit peptide (amino acid residues; 49-525, 34-507, and 52-527, respectively); made in house; host or cells: E. coli
T2 sequence (Q00218 34-507 G222S): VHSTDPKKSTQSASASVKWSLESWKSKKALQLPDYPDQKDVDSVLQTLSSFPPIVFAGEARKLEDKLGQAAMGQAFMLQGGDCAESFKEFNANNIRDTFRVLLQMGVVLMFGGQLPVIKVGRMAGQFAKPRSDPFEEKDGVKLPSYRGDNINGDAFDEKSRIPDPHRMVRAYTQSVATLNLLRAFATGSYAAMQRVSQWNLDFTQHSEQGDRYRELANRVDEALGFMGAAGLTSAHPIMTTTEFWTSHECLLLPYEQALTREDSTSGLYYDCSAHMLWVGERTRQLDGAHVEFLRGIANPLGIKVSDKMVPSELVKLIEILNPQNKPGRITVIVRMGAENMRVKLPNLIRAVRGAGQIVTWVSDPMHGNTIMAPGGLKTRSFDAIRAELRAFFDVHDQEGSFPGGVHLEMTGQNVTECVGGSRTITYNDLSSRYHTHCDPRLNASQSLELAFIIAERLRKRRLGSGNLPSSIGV
Description: (§1) To examine the impact of the sota mutations on the interaction between DHS and AAA effectors (FIG. 22), a differential scanning fluorimetry (DSF) analysis (48) was conducted using the recombinant DHS2^WT and DHS2^A4 proteins. […] The fluorescence signal was monitored during the stepwise increase in temperature (1° C. per minute from 25° C. to 95° C.). The Tm was calculated by nonlinear regression analysis using the Boltzmann sigmoidal equation (48).

DHS3^H1 = assay: DHS enzyme assay, recombinant DHS3^H1; type: biochemical, Arabidopsis thaliana
Description: (§2) To generate DHS proteins with individual sota mutations via site-directed mutagenesis, these pET28a plasmid templates were diluted by 500-fold, mixed with 0.04 U/μL Phusion DNA polymerase (Thermo Scientific), 0.2 mM deoxynucleoside triphosphates (dNTPs), 1× Phusion reaction buffer (Thermo Scientific), and 0.5 μM forward and reverse mutagenesis primers (Table 10). The PCR reaction was run using the following protocol: 98° C. for 30 s followed by 20 cycles of 10 s at 98° C., 20 s at 70° C., 4.5 min at 72° C. with a final extension at 72° C. for 10 min. The PCR products were purified using a QIAquick Gel Extraction Kit (QIAGEN), treated with FastDigest DpnI (Thermo Scientific) to digest methylated plasmid template DNA for 20 min at 37° C., and transformed into E. coli cells. The mutagenized pET28a plasmids were sequenced to confirm that no errors were introduced during the mutagenesis process.
(§3) The DHS enzyme assays were conducted using the colorimetric method that we recently described (9). Briefly, the enzyme solution (7.7 μl) containing 50 mM Hepes (pH 7.4) was preincubated with an effector molecule(s) at room temperature for 15 min. For assays using recombinant protein and enzyme fractions isolated from plant leaves, 0.01 to 0.1 μg and approximately 50 μg of proteins were used, respectively. After adding 0.5 μl of 0.1 M dithiothreitol, the samples were further incubated at room temperature for 15 min. During these incubations, the substrate solution containing 50 mM Hepes (pH 7.4), 2 mM MnCl2, 4 mM E4P, and 4 mM PEP at final concentration was preheated at 37° C. The enzyme reaction was started by adding 6.8 μl of the substrate solution, then incubated at 37° C. for 30 min, and terminated by adding 30 μl of 0.6 M trichloroacetic acid. After a brief centrifugation, 5 μl of 200 mM NaIO4 (sodium meta-periodate) in 9 N H3PO4 was added to oxidize the enzymatic product and to incubate at 25° C. for 20 min. To stop the oxidation reaction, 20 μl of 0.75 M NaAsO2 (sodium arsenite), which was dissolved in 0.5 M Na2SO4 and 0.05 M H2SO4, was added and immediately mixed. […]

DHS3^WT = settings: AAAs: from Yokoyama et al., Plant Cell, 2021; cited from earlier work
[1] = biological target: T3, Arabidopsis thaliana DHS2 (SEQ ID NO:2) variant DHS2^A4 (sotaA4), G222S (Arabidopsis thaliana, UniProt Q00218, G222S); assay: Differential scanning fluorimetry protein-ligand affinity analysis, DHS2 sotaA4; type: binding; settings: ligand at 1 mM
T3 construct: without the predicted plastid transit peptide (amino acid residues; 49-525, 34-507, and 52-527, respectively); made in house; host or cells: E. coli
T3 sequence (Q00218 34-507 G222S): as above
Description: (A) Simplified pathway map of AAAs and AAA-derived metabolites used in the effector screening. […] Data are means±SEM (n=3 independent assays).
as §1

DHS2^WT = biological target: T4, DHS2^WT (Arabidopsis thaliana, UniProt Q00218); assay: Differential scanning fluorimetry (DSF) protein-ligand affinity analysis, DHS2^WT; type: binding; settings: ligand at 1 mM
T4 construct: without the predicted plastid transit peptide (amino acid residues; 49-525, 34-507, and 52-527, respectively); made in house; host or cells: E. coli Rosetta-2
T4 sequence (Q00218 34-507): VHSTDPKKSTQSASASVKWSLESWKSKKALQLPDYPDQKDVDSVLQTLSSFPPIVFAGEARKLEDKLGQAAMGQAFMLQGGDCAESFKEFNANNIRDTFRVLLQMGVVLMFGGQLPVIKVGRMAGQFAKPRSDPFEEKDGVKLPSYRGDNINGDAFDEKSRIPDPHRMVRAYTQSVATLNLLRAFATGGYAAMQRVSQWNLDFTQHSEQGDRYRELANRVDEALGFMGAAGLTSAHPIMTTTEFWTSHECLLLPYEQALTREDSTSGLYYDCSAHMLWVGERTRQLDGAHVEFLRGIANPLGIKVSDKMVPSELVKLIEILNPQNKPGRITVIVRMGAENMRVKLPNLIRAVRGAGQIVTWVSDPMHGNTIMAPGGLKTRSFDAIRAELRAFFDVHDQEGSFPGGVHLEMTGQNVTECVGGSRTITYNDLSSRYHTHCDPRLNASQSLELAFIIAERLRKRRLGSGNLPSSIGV
Description: as §1

[2] = biological target: T5, Arabidopsis thaliana DHS1 (AtDHS1), wild type (DHS1^WT), SEQ ID NO:1 (Arabidopsis thaliana, UniProt P29976); assay: DHS enzyme assay with effector, Arabidopsis DHS1 WT; type: biochemical; settings: DHS1^WT; 4 mM E4P, 4 mM PEP, pH 7.4, 37° C.
T5 construct: without the predicted plastid transit peptide (amino acid residues; 49-525, 34-507, and 52-527, respectively); made in house; host or cells: E. coli Rosetta-2
T5 sequence (P29976 49-525): as the sequence (P29976 49-525) above
Description: as §2, §3

N[C@@H](Cc1c[nH]c2ccccc12)C(=O)O [Trp, tryptophan]
IC50 of effector molecule on DHS1^WT (DHS1^WT): Not inhibited | effect on melting temperature (Tm) / binding of DHS2^A4 (DHS2^A4): still binds; also recorded: significantly increased the Tm | IC50 of effector molecule on DHS3^H1 (DHS3^H1): Not inhibited | IC50 of effector molecule on DHS3^WT (DHS3^WT): Not inhibited | binding (DSF) [1]: still binds Tyr and Trp | effect on melting temperature (Tm) of DHS2^WT (DHS2^WT): significantly increased the Tm

O=C(O)Cc1cc(O)ccc1O [HGA, homogentisate]
IC50 (DHS3^H1; read-out: IC50 of effector molecule on DHS3^H1): 405 µM

O=C(O)C(=O)Cc1ccc(O)cc1 [HPP, 4-Hydroxyphenylpyruvate]
IC50 [2]: 305 µM
